Measured values taken from PubChem BioAssay AID1963978 (Molecular Pharmacology Branch, DTP, NCI, 2024).

Tested on: 616215-338-R-J1-PDC spheroids with HUVEC/MSC, viability
Assay: Anticancer human tumor 616215-338-R-J1-PDC patient-derived colon adenocarcinoma cell line growth inhibition [PI3K]
Conditions: for IC50: curve of first compound; for viability, T/C: stronger effect = lower value; active = viability on the fitted dose curve at most 10% of control; inactive = the rest
How it was run: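 Stroma-containing spheroids: tumor line, pooled-donor HUVEC, hMSC. Treatments: targeted agents with PI3K inhibitors. Dosing: clinically relevant, half-log spacing, 10 microM ceiling without known Cmax. Read-out: cell viability.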

[1] = second compound 0.0316 µM, first compound 0.0316 µM
[2] = second compound 0.0316 µM, first compound 0.1 µM
[3] = second compound 0.0316 µM, first compound 0.316 µM
[4] = second compound 0.0316 µM, first compound 1 µM
[5] = second compound 0.0316 µM, first compound 3.16 µM
[6] = second compound 0.0316 µM, first compound 10 µM
[7] = second compound 0.1 µM, first compound 0.0316 µM
[8] = second compound 0.1 µM, first compound 0.1 µM
[9] = second compound 0.1 µM, first compound 0.316 µM
[10] = second compound 0.1 µM, first compound 1 µM
[11] = second compound 0.1 µM, first compound 3.16 µM
[12] = second compound 0.1 µM, first compound 10 µM
[13] = second compound 0.316 µM, first compound 0.0316 µM
[14] = second compound 0.316 µM, first compound 0.1 µM
[15] = second compound 0.316 µM, first compound 0.316 µM
[16] = second compound 0.316 µM, first compound 1 µM
[17] = second compound 0.316 µM, first compound 3.16 µM
[18] = second compound 0.316 µM, first compound 10 µM
[19] = second compound 1 µM, first compound 0.0316 µM
[20] = second compound 1 µM, first compound 0.1 µM
[21] = second compound 1 µM, first compound 0.316 µM
[22] = second compound 1 µM, first compound 1 µM
[23] = second compound 1 µM, first compound 3.16 µM
[24] = second compound 1 µM, first compound 10 µM
[25] = second compound 3.16 µM, first compound 0.0316 µM
[26] = second compound 3.16 µM, first compound 0.1 µM
[27] = second compound 10 µM, first compound 0.0316 µM
[28] = second compound 10 µM, first compound 0.1 µM
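Note: spheroids exposed to agents for seven days before the viability read.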

CC1(C)CCC(Nc2ncc(C(F)(F)F)c(-c3c[nH]c4c(P(C)(C)=O)c(C#N)ccc34)n2)CN1 (stereo unspecified) + CC(Nc1ccc2c(c1)OCCn1cc(N3C(=O)OCC3C(F)F)nc1-2)C(N)=O
active: viability, T/C (second compound 0.00316 µM, first compound 10 µM) 0.47% | viability, T/C (second compound 0.01 µM, first compound 10 µM) 0.42% | viability, T/C [6] 2.25% | viability, T/C [12] 2.28% | viability, T/C [18] 0.25% | viability, T/C [24] 1.17%
3.62 µM: IC50 (second compound 0.00316 µM)
inactive: viability, T/C (second compound 0.00316 µM, first compound 0.0316 µM) 50.4% | viability, T/C (second compound 0.00316 µM, first compound 0.1 µM) 55.4% | viability, T/C (second compound 0.00316 µM, first compound 0.316 µM) 56.4% | viability, T/C (second compound 0.00316 µM, first compound 1 µM) 61.7% | viability, T/C (second compound 0.00316 µM, first compound 3.16 µM) 59.1% | viability, T/C (second compound 0.01 µM, first compound 0.0316 µM) 53.6% | viability, T/C (second compound 0.01 µM, first compound 0.1 µM) 54.3% | viability, T/C (second compound 0.01 µM, first compound 0.316 µM) 58% | viability, T/C (second compound 0.01 µM, first compound 1 µM) 64.8% | viability, T/C (second compound 0.01 µM, first compound 3.16 µM) 61% | viability, T/C [1] 58% | viability, T/C [2] 49.4% | viability, T/C [3] 71.4% | viability, T/C [4] 52.2% | viability, T/C [5] 55.4% | viability, T/C [7] 66.7% | viability, T/C [8] 59.5% | viability, T/C [9] 53.2% | viability, T/C [10] 59.4% | viability, T/C [11] 60.4% | viability, T/C [13] 49.8% | viability, T/C [14] 45.8% | viability, T/C [15] 59.5% | viability, T/C [16] 71.9% | viability, T/C [17] 41% | viability, T/C [19] 49.6% | viability, T/C [20] 54.3% | viability, T/C [21] 64.7% | viability, T/C [22] 62.2% | viability, T/C [23] 30.8%
1.63 µM: IC50 (second compound 0.316 µM)
3.73 µM: IC50 (second compound 0.01 µM)
1.39 µM: IC50 (second compound 1 µM)
3.84 µM: IC50 (second compound 0.1 µM)
3.54 µM: IC50 (second compound 0.0316 µM)

CC(C)n1nc(-c2ccc3oc(N)nc3c2)c2c(N)ncnc21 + CC(Nc1ncnc2nc[nH]c12)c1cc2cccc(Cl)c2c(=O)n1-c1ccccc1
> 0.1 µM: IC50 (second compound 0.0316 µM) | IC50 (second compound 0.1 µM) | IC50 (second compound 0.316 µM) | IC50 (second compound 1 µM) | IC50 (second compound 3.16 µM) | IC50 (second compound 10 µM)
inactive: viability, T/C (second compound 0.0316 µM, first compound 0.000316 µM) 102% | viability, T/C (second compound 0.0316 µM, first compound 0.001 µM) 103% | viability, T/C (second compound 0.0316 µM, first compound 0.00316 µM) 102% | viability, T/C (second compound 0.0316 µM, first compound 0.01 µM) 124% | viability, T/C [1] 112% | viability, T/C [2] 86.9% | viability, T/C (second compound 0.1 µM, first compound 0.000316 µM) 103% | viability, T/C (second compound 0.1 µM, first compound 0.001 µM) 121% | viability, T/C (second compound 0.1 µM, first compound 0.00316 µM) 99.8% | viability, T/C (second compound 0.1 µM, first compound 0.01 µM) 109% | viability, T/C [7] 120% | viability, T/C [8] 88.6% | viability, T/C (second compound 0.316 µM, first compound 0.000316 µM) 95.5% | viability, T/C (second compound 0.316 µM, first compound 0.001 µM) 92.8% | viability, T/C (second compound 0.316 µM, first compound 0.00316 µM) 118% | viability, T/C (second compound 0.316 µM, first compound 0.01 µM) 110% | viability, T/C [13] 101% | viability, T/C [14] 77.4% | viability, T/C (second compound 1 µM, first compound 0.000316 µM) 94.8% | viability, T/C (second compound 1 µM, first compound 0.001 µM) 106% | viability, T/C (second compound 1 µM, first compound 0.00316 µM) 99.2% | viability, T/C (second compound 1 µM, first compound 0.01 µM) 118% | viability, T/C [19] 122% | viability, T/C [20] 80.5% | viability, T/C (second compound 3.16 µM, first compound 0.000316 µM) 123% | viability, T/C (second compound 3.16 µM, first compound 0.001 µM) 103% | viability, T/C (second compound 3.16 µM, first compound 0.00316 µM) 111% | viability, T/C (second compound 3.16 µM, first compound 0.01 µM) 115% | viability, T/C [25] 128% | viability, T/C [26] 68.5% | viability, T/C (second compound 10 µM, first compound 0.000316 µM) 110% | viability, T/C (second compound 10 µM, first compound 0.001 µM) 110% | viability, T/C (second compound 10 µM, first compound 0.00316 µM) 102% | viability, T/C (second compound 10 µM, first compound 0.01 µM) 113% | viability, T/C [27] 112% | viability, T/C [28] 66.8%

Cn1ncc(Cl)c1-c1cc(C(=O)NC(CN)Cc2cccc(F)c2)sc1Cl (stereo unspecified) + CC(Nc1ncnc2nc[nH]c12)c1cc2cccc(Cl)c2c(=O)n1-c1ccccc1
4.2 µM: IC50 (second compound 0.1 µM)
4.15 µM: IC50 (second compound 0.316 µM)
inactive: viability, T/C [1] 106% | viability, T/C [2] 87.6% | viability, T/C [3] 98% | viability, T/C [4] 93.7% | viability, T/C [5] 75.7% | viability, T/C [6] 19.8% | viability, T/C [7] 107% | viability, T/C [8] 103% | viability, T/C [9] 100% | viability, T/C [10] 92% | viability, T/C [11] 60.7% | viability, T/C [12] 16.4% | viability, T/C [13] 98.4% | viability, T/C [14] 100% | viability, T/C [15] 104% | viability, T/C [16] 95% | viability, T/C [17] 59.5% | viability, T/C [18] 19.6% | viability, T/C [19] 95.9% | viability, T/C [20] 88.5% | viability, T/C [21] 105% | viability, T/C [22] 94.5% | viability, T/C [23] 64% | viability, T/C [24] 17.6% | viability, T/C [25] 104% | viability, T/C [26] 113% | viability, T/C (second compound 3.16 µM, first compound 0.316 µM) 96.1% | viability, T/C (second compound 3.16 µM, first compound 1 µM) 82.1% | viability, T/C (second compound 3.16 µM, first compound 3.16 µM) 50% | viability, T/C (second compound 3.16 µM, first compound 10 µM) 19.6% | viability, T/C [27] 98.3% | viability, T/C [28] 112% | viability, T/C (second compound 10 µM, first compound 0.316 µM) 106% | viability, T/C (second compound 10 µM, first compound 1 µM) 75.1% | viability, T/C (second compound 10 µM, first compound 3.16 µM) 54.7% | viability, T/C (second compound 10 µM, first compound 10 µM) 20.6%
4.48 µM: IC50 (second compound 1 µM)
3.29 µM: IC50 (second compound 10 µM)
5.37 µM: IC50 (second compound 0.0316 µM)
3.16 µM: IC50 (second compound 3.16 µM)
